Laboratory results reported in patent US12213959B2, “Use of 3-O-sulfamoyloxy-7β-methyl-d-homo-6-oxaestra-1,3,5(10),8(9)-tetraen-17a-one to treat breast cancer” (priority 2018, dated 2025).
Where “and” joins values, the source holds several entries; their conditions need not be identical. Identical values can stand only once. Marks after values point to notes of the source that are not given here.

Tested on: breast tumours in FBV/N female mice, transgenic for HER-2/neu
Experiment: Antitumour activity on breast tumours of HER-2/neu transgenic mice
Format: in vivo
Conditions: for Average total tumour volume, % of change to the initial value / Average tumor volume, % of change to the initial value: Day 28 vs Day 0; for Absolute number of new tumours / frequency of stabilisations of tumours present at initiation of treatment / volume of new tumours, less than the control (Control-2) value: end of observation
Procedure: The study was carried out on female FVB mice transgenic for HER-2/neu of the conventional category, the strain being obtained from the mouse bank Charles River Laboratories (Italy).
Duration of the administration course was 27-28 days.
The control groups were given the olive oil (placebo).
The macroscopically detectable tumor nodes were measured in the animals once per week during the weighing process.

[1] = medicament 20 mg/kg daily i.g., Day 14
[2] = medicament 20 mg/kg daily i.g., Day 21
[3] = medicament 20 mg/kg daily i.g., Day 28
[4] = medicament 20 mg/kg, vs Control-2, Day 0
[5] = medicament 20 mg/kg, vs Control-2, Day 7
[6] = medicament 20 mg/kg, vs Control-2, Day 14
[7] = medicament 20 mg/kg, vs Control-2, Day 21
[8] = medicament 20 mg/kg, vs Control-2, Day 28
[9] = medicament 100 mg/kg daily i.g., Day 0
[10] = medicament 100 mg/kg daily i.g., Day 7
[11] = medicament 100 mg/kg daily i.g., Day 14
[12] = medicament 100 mg/kg daily i.g., Day 21
[13] = medicament 100 mg/kg daily i.g., Day 28
[14] = medicament 100 mg/kg daily i.g.
[15] = medicament 100 mg/kg, vs Control-2, Day 0
[16] = medicament 100 mg/kg, vs Control-2, Day 7
[17] = medicament 100 mg/kg, vs Control-2, Day 14
[18] = medicament 100 mg/kg, vs Control-2, Day 21
[19] = medicament 100 mg/kg, vs Control-2, Day 28

Q: Which results are given for `C[C@H]1Oc2cc(OS(N)(=O)=O)ccc2C2=C1[C@@H]1CCCC(=O)[C@@]1(C)CC2` [medicament, 3-O-sulfamoyloxy-7β-methyl-O-homo-6-oxaestra-1,3,5(10),8(9)-tetraen]?
A: Average total volume of tumours in mice (M) [1]: 0.94 cm^3; Average volume of tumors existing at the beginning of the experiment (M) [1]: 0.43 cm^3; Relative change of the average total volume of tumours to that of Day −1 (M) (medicament 20.0 mg/kg daily i.g., Day 14): 145%; Average total volume of tumours in mice (M) [2]: 1.18 cm^3; Average volume of tumors existing at the beginning of the experiment (M) [2]: 0.54 cm^3; Relative change of the average total volume of tumours to that of Day −1 (M) (medicament 20.0 mg/kg daily i.g., Day 21): 209** %; Average total volume of tumours in mice (M) [3]: 1.22 cm^3; Average volume of tumors existing at the beginning of the experiment (M) [3]: 0.55 cm^3; Relative change of the average total volume of tumours to that of Day −1 (M) (medicament 20.0 mg/kg daily i.g., Day 28): 227*** %; Average total tumour volume, % of change to the initial value (medicament 20 mg/kg daily i.g.): 198%; Average tumor volume, % of change to the initial value (medicament 20 mg/kg daily i.g.): 206%; Absolute number of new tumours (medicament 20 mg/kg): 22; frequency of stabilisations of tumours present at initiation of treatment (medicament 20 mg/kg): 9%; volume of new tumours, less than the control (Control-2) value (medicament 20 mg/kg): 32%; TGI (average total tumour volume) [4]: −116%; TGI (average tumor volume) [4]: −125%; TGI (average total tumour volume) [5]: −114%; TGI (average tumor volume) [5]: −115%; TGI (average total tumour volume) [6]: −45%; TGI (average tumor volume) [6]: −54%; TGI (average total tumour volume) [7]: −19%; TGI (average tumor volume) [7]: −26%; TGI (average total tumour volume) [8]: 12%; TGI (average tumor volume) [8]: 10%; Average volume of new tumours at the end of the observation period (medicament 100 mg/kg): 0.18±0.04 cm^3 and 0.18 cm^3; Average total volume of tumours in mice (M) [9]: 0.28 cm^3; Average volume of tumors existing at the beginning of the experiment (M) [9]: 0.13 cm^3; Relative change of the average total volume of tumours to that of Day −1 (M) (medicament 100.0 mg/kg daily i.g., Day 0): 0%; Average total volume of tumours in mice (M) [10]: 0.41 cm^3; Average volume of tumors existing at the beginning of the experiment (M) [10]: 0.19 cm^3; Relative change of the average total volume of tumours to that of Day −1 (M) (medicament 100.0 mg/kg daily i.g., Day 7): 42%; Average total volume of tumours in mice (M) [11]: 0.59 cm^3; Average volume of tumors existing at the beginning of the experiment (M) [11]: 0.27 cm^3; Relative change of the average total volume of tumours to that of Day −1 (M) (medicament 100.0 mg/kg daily i.g., Day 14): 89* %; Average total volume of tumours in mice (M) [12]: 0.81 cm^3; Average volume of tumors existing at the beginning of the experiment (M) [12]: 0.37 cm^3; Relative change of the average total volume of tumours to that of Day −1 (M) (medicament 100.0 mg/kg daily i.g., Day 21): 177*** %; Average total volume of tumours in mice (M) [13]: 0.97* cm^3; Average volume of tumors existing at the beginning of the experiment (M) [13]: 0.44 cm^3; Relative change of the average total volume of tumours to that of Day −1 (M) (medicament 100.0 mg/kg daily i.g., Day 28): 269*** %; Average total tumour volume, % of change to the initial value [14]: 246%; Average tumor volume, % of change to the initial value [14]: 238%; Absolute number of new tumours (medicament 100 mg/kg): 19; frequency of stabilisations of tumours present at initiation of treatment (medicament 100 mg/kg): 9%; volume of new tumours, less than the control (Control-2) value (medicament 100 mg/kg): 36%; TGI (average total tumour volume) [15]: −47%; TGI (average tumor volume) [15]: −63%; TGI (average total tumour volume) [16]: −41%; TGI (average tumor volume) [16]: −46%; TGI (average total tumour volume) [17]: 9%; TGI (average tumor volume) [17]: 4%; TGI (average total tumour volume) [18]: 18%; TGI (average tumor volume) [18]: 14%; TGI (average total tumour volume) [19]: 30%; TGI (average tumor volume) [19]: 28%; relative change in the total volume of tumours versus control groups (medicament 20 and 100 mg/kg): statistically significantly lower
